# Experimental data published in ChEMBL document CHEMBL1136763, “Antiestrogenically active 1,1,2-tris(4-hydroxyphenyl)alkenes without basic side chain: synthesis and biological activity” (J Med Chem, 2003).
# What was measured:
# MCF7 = assay: Inhibition of MCF-7 cell proliferation at 5 uM; assay type: functional, Homo sapiens
# Estrogen receptor = Estrogen receptor (Homo sapiens, UniProt Q92731+P03372); assay: Inhibition of estradiol induced estrogen receptor transcriptional activation in MCF-7-2a cells; assay type: functional, cell-based
compound,measurement,setting,value
CC/C(=C(\c1ccc(O)cc1)c1ccc(OCCN(C)C)cc1)c1ccccc1,T/C corr,MCF7,25%
Oc1ccc(C=C(c2ccc(O)cc2)c2ccc(O)cc2)cc1,T/C corr,MCF7,70%
same,IC50,Estrogen receptor,200 nM
CCC(=C(c1ccc(O)cc1)c1ccc(O)cc1)c1ccc(O)cc1,T/C corr,MCF7,97%
same,IC50,Estrogen receptor,10 nM
CC(=C(c1ccc(O)cc1)c1ccc(O)cc1)c1ccc(O)cc1,T/C corr,MCF7,88%
same,IC50,Estrogen receptor,15 nM
CCCCC(=C(c1ccc(O)cc1)c1ccc(O)cc1)c1ccc(O)cc1,T/C corr,MCF7,114%
same,IC50,Estrogen receptor,240 nM
CCCC(=C(c1ccc(O)cc1)c1ccc(O)cc1)c1ccc(O)cc1,T/C corr,MCF7,102%
same,IC50,Estrogen receptor,70 nM
CC/C(=C(\c1ccccc1)c1ccc(OCCN(C)C)cc1)c1ccccc1 [TAMOXIFEN],T/C corr,MCF7,15%
